Source: patent publication US20230248646A1 (The General Hospital Corporation, priority 2013, published 2023)
Read-outs that look alike come from different tables or passages of the source.

What was measured:
[1] = NGI impactor fractions with AZHALER dry powder inhaler; format: physicochemical; settings: per 17.1 mg of API
Description: AZHALER. […] It is a single-dose device used to deliver the inhalation powder to the patient's lung in form of an aerosol. The inhaler consists of a container, a valve, and a mouthpiece. In this study the low resistance model (80 L airflow resistance) was used. These device reaches a pressure drop of 4 kPa at c.80 L/min, and is suitable for use on a wide range of patient population i.e. including elderly, children and patients with severe respiratory impairment

[2] = Phase 1 pharmacokinetic study of inhaled cromolyn, plasma; format: in vivo, human; settings: for Tmax / Vd/F / AUC(0-inf) / Cmax / half-life: human; for half-life: read-out: apparent t1/2 range
[3] = Initial characterization of manufactured cromolyn (particle size distribution); format: physicochemical
Description: Cromolyn capsules for inhalation were manufactured by Pharmaterials, Ltd (Reading, UK). […] Therefore, there was a need to use hydrophobic excipient in the powder formulation to improve product performance and stability. Addition of hydrophobic excipient offers inherent resistance of dry powder inhalation formulations to negative effect of moisture to such formulations. Magnesium stearate was chosen as suitable hydrophobic excipient since it is commercially used in dry powder inhaler (DPI) products. […] Lactose monohydrate was additionally used as diluent for this case.

[4] = NGI cascade impactor test, single-use passive dry powder inhaler ([…], Aespira); format: physicochemical; settings: NGI approx. 100 L/min for 2.4 seconds
Experimental: Delivery of cromolyn by a single-use passive dry powder inhaler device was assessed. The passive inhaler device included an active particle dispersion mechanism ([…]) involving breath-driven beating of a mesh package containing the powder to be delivered. A blend containing disodium cromoglycate (DSCG) (Cambrex) and Lactohale LH300 lactose (Friesland Foods Domo) was prepared by blending in an Alpine Picoline high shear mixer (module Picomix) (Hosokawa Alpine, Augsburg, Germany) at a speed of 4000 rpm for 3 minutes. The blend contained 80:20 (wt/wt.) DSCG:lactose. Neat DSCG also was tested.

[5] = NGI cascade impactor test, active dry powder inhaler with piezoelectric vibrator; format: physicochemical; settings: NGI approx. 30 L/min for 2 seconds
Description: The inhaler device included injection molded plastic components, electronics, a battery, and drug filled blisters. The inhaler included a lever arm, upon actuation of which the blister was placed in contact with a piezoelectric vibrator within the device and then pierced by needles. The inhaler also included an airflow sensor which automatically turned on the piezoelectric vibrator after a minimum inspiratory flow rate was exceeded. Activation of the piezoelectric vibrator […] powder particles and aerosolized them out of the blister and into the inspiratory airstream. The inhaler included visual feedback at the start of dosing and as confirmation of successful completion of dosing, thereby facilitating improved patient compliance. […] A blend containing disodium cromoglycate (DSCG) (Cambrex) and lactose monohydrate (DFE Pharma) (grade: lactohale LH201) was prepared by blending at a speed of 150 rpm for 15 minutes. The blend contained 60:40 (wt/wt.) DSCG:lactose. Neat DSCG also was tested.

[6] = 17.1 mg single inhaled dose, mean
[7] = 34.2 mg double inhaled dose, mean
[8] = inhaled or intranasal, 17.1 mg, 17.1 mg single inhaled dose, mean
[9] = inhaled or intranasal, 34.2 mg, 34.2 mg double inhaled dose, mean

Q: Which results are given for `O=C(O)c1cc(=O)c2c(OCC(O)COc3cccc4oc(C(=O)O)cc(=O)c34)cccc2o1` [cromolyn, 5,5′-(2-hydroxypropane-1,3-diyl)bis(oxy)bis(4-oxo-4H-chromene-2-carboxylic acid)]?
A: cromolyn in the impactor fractions with <3 micron size particles (NGI stage 4-MOC) [1]: 4 to 5 mg; Cl/F [2, 6]: 108532.36 mL/h; T0.5 [2, 6]: 1.75 ± 0.9 h; T0.5 ([2]; 17.1 mg single inhaled dose, mean, listed as Cromolyn): 1.75 h; Cl/F ([2]; 17.1 mg, Max): 183363.7 mL/h; T0.5 ([2]; 17.1 mg, Max): 3.7 h; T0.5 ([2]; 17.1 mg, Min): 0.6, h; Cl/F ([2]; 17.1 mg, median): 82640.18 mL/h; T0.5 ([2]; 17.1 mg, median): 1.56 h; Cl/F [2, 7]: 132178.06 mL/h; T0.5 [2, 7]: 1.91 ± 0.7 h; T0.5 ([2]; 34.2 mg double inhaled dose, mean, listed as Cromolyn): 1.91 h; Cl/F ([2]; 34.2 mg, median): 130382.20 mL/h; T0.5 ([2]; 34.2 mg, median): 1.80 h; Tmax [2, 8]: 22.8 min; Vd/F [2, 8]: 137 L; AUC(0-inf) ([2]; inhaled or intranasal, 17.1 mg, 17.1 mg single inhaled dose, mean, read-out: AUC0-inf): 196 ± 97.3 ng·h/mL; Cmax ([2]; inhaled or intranasal, 17.1 mg, 17.1 mg single inhaled dose, mean, read-out: Cmax): 46.7 ng/mL; half-life ([2]; inhaled or intranasal, 17.1 mg): 36 to 222 min; AUC(0-inf) ([2]; inhaled or intranasal, 17.1 mg, single (17.1 mg) dose inhalation, range, read-out: AUC0-inf range): 93.3 to 287 ng·h/mL; Cmax ([2]; inhaled or intranasal, 17.1 mg, single dose (17.1 mg) inhalation, mean ± SD, read-out: average Cmax): 46.7 ± 33 ng/mL; Cmax ([2]; inhaled or intranasal, 17.1 mg, single dose (17.1 mg) inhalation, range, read-out: Cmax range): 14 to 133 ng/mL; Tmax [2, 9]: 22.2 min; Vd/F [2, 9]: 330 L; AUC(0-inf) ([2]; inhaled or intranasal, 34.2 mg, 34.2 mg double inhaled dose, mean, read-out: AUC0-inf): 285 ± 91.3 ng·h/mL; Cmax ([2]; inhaled or intranasal, 34.2 mg, 34.2 mg double inhaled dose, mean, read-out: Cmax): 96.8 ng/mL; AUC(0-inf) ([2]; inhaled or intranasal, 34.2 mg, double (34.2 mg) dose inhalation, range, read-out: AUC0-inf range): 155 to 443 ng·h/mL; Cmax ([2]; inhaled or intranasal, 34.2 mg, double dose (34.2 mg) inhalation, mean ± SD, read-out: average Cmax): 96.8 ± 46.2 ng/mL; Cmax ([2]; inhaled or intranasal, 34.2 mg, double dose (34.2 mg) inhalation, range, read-out: Cmax range): 36.1 to 236 ng/mL; half-life ([2]; inhaled or intranasal, double dose (34.2 mg) inhalation, range): 42 to 228 min; Tmax ([2]; inhaled, 17.1 mg, Max): 60 min; Vd/F ([2]; inhaled, 17.1 mg, Max): 144 L; AUC(0-inf) ([2]; inhaled, 17.1 mg, Max, read-out: AUC0-inf): 287 ng·h/mL; Cmax ([2]; inhaled, 17.1 mg, Max, read-out: Cmax): 133 ng/mL; Tmax ([2]; inhaled, 17.1 mg, Min): 6 min; Vd/F ([2]; inhaled, 17.1 mg, Min): 134 L; AUC(0-inf) ([2]; inhaled, 17.1 mg, Min, read-out: AUC0-inf): 93.3 ng·h/mL; Cmax ([2]; inhaled, 17.1 mg, Min, read-out: Cmax): 14 ng/mL; Tmax ([2]; inhaled, 17.1 mg, median): 15 min; Vd/F ([2]; inhaled, 17.1 mg, median): 134 L; AUC(0-inf) ([2]; inhaled, 17.1 mg, median, read-out: AUC0-inf): 207 ng·h/mL; Cmax ([2]; inhaled, 17.1 mg, median, read-out: Cmax): 36.2 ng/mL; Tmax ([2]; inhaled, 34.2 mg, median): 13.8 min; Vd/F ([2]; inhaled, 34.2 mg, median): 264 L; AUC(0-inf) ([2]; inhaled, 34.2 mg, median, read-out: AUC0-inf): 262 ng·h/mL; Cmax ([2]; inhaled, 34.2 mg, median, read-out: Cmax): 76.5 ng/mL; initial characterization of the material ([3]; manufactured cromolyn): crystalline and hygroscopic material; particle size distribution d50 ([3]; micronized cromolyn): < 5 μm; particle size distribution d90 ([3]; micronized cromolyn): < 10 μm

Q: For `O=C(O)c1cc(=O)c2c(OCC(O)COc3cccc4oc(C(=O)O)cc(=O)c34)cccc2o1` [DSCG:lactose 100:0, disodium cromoglycate], which “Fine Particle Dose <5 μm” value [4] is on record?
A: 430 µg

Q: What about the “Fine Particle Dose <5 μm (% of initial dose)” value [4] of the same compound?
A: 9 % of initial dose

Q: What about the MMAD [4] of the same compound?
A: >4 μm

Q: And the “Stages 4 to 8” value [4]?
A: 150 µg

Q: What about the “Stages 4 to 8 (% of initial dose)” value [4] of the same compound?
A: 3 % of initial dose

Q: And the “Fine Particle Dose <5 μm” value [5]?
A: 2321 µg

Q: And the “Fine Particle Fraction <5 μm” value [5]?
A: 59 % of delivered dose

Q: And the “Stages 4 to 8” value [5]?
A: 2098 µg

Q: And the “Stages 4 to 8 (% of initial dose)” value [5]?
A: 42 % of initial dose
